Source: patent publication US20250136576A1, “Heterocyclic Compounds and Uses Thereof” (ACEA Therapeutics, Inc., priority 2021, published 2025)
pIC50: −log10 of the molar value. Read-outs that look alike come from different tables or passages of the source.

Tests used:
Type in all cases: cell-based
KM12-luc cells = test: Cell proliferation and growth inhibition assay (CCK-8) in KM12-luc; conditions: KM12-luc cells, treated with test compounds for 72 hrs, CCK-8 viability, read-out: NTRK IC50 in KM12-luc
Method in brief: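 IC50 values were fitted by sigmoidal dose-response non-linear regression of CCK-8 OD450 absorbance after 1-4 hrs with reagent. Culture media were IMDM for MV-4-11, RPMI 1640 for H1975 and DMEM for KM12-luc, each with 10% FBS at 37 °C, 5% CO2.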

H1975 cells = test: Cell proliferation and growth inhibition assay (CCK-8) in H1975; conditions: Homo sapiens, NCI-H1975, 72 h, treated with test compounds for 72 hrs, CCK-8 viability, read-out: EGFR IC50 in H1975
Method in brief: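 Cells seeded at 30,000 (MV-4-11, IMDM) or 3,000 (H1975, RPMI 1640) per well, left 24 h, then compound-treated 72 h at 37 °C, 5% CO2, 10% FBS. Viability read by CCK-8 (1–4 h) at OD450. IC50 from sigmoidal dose-response nonlinear regression.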

MV-4-11 (AML) cells = test: Cell proliferation and growth inhibition assay (CCK-8) in MV-4-11; conditions: Homo sapiens, MV4-11; MV-4-11 cells, treated with test compounds for 72 hrs, CCK-8 viability
Method: MV-4-11 and H1975 cells were obtained from the American Type Culture Collection and KM12-luc cells were obtained from JCRB Cell Bank. All cell lines were maintained at 37° C. with 5% C02, in media supplemented with 10% fetal bovine serum and penicillin (100 units/mL) and streptomycin (100 μg/mL). MV-4-11 cells were maintained in Iscove's Modified Dubecco's Medium, H1975 cells were cultured with RPMI 1640 media, and KM12-luc cells were maintained in Dulbecco's Modification of Eagle's Medium. CCK-8 reagent was obtained from Yeasen.
Cell proliferation was assessed by CCK-8 assay (Yeasen) per the manufacturer's instructions. The MV-4-11 (AML), H1975, and KM12-luc cells were seeded at 30,000, 3,000 and 2,500 cells per well onto 96-well plates, and after a 24 h incubation, the cells were treated with test compounds for 72 hrs. Cell viability was assayed by incubating the cells with CCK-8 reagent for 1-4 hrs. Absorbance was measured at OD450 using the Beckman DTX880. The data was calculated using GraphPad Prism version 6.01. The IC50 values were fitted using a non-linear regression model with a sigmoidal dose response.

Compound	pIC50 (H1975 cells)	pIC50 (MV-4-11 (AML) cells)	pIC50 (KM12-luc cells; KM12-Luc, 72 h)	pIC50 (KM12-luc cells)
Cc1cccc2c(-c3nc(Nc4ccc(N(C)CCN(C)C)c(N)c4)ncc3C(F)(F)F)c[nH]c12 [Compound 359, N^1-(2-(dimethylamino)ethyl)-N^1-methyl-N^4-(4-(7-methyl-1H-indol-3-yl)-5-(trifluoromethyl)pyrimidin-2-yl)benzene-1,2,4-triamine]	6.92	8.23	8.26	
CC(=O)Nc1cc(Nc2ncc(C(F)(F)F)c(-c3c[nH]c4c(C)cccc34)n2)ccc1OCCN(C)C [Compound 365, N-(2-(2-(dimethylamino)ethoxy)-5-((4-(7-methy-1H-indol-3-yl)-5-(trifluoromethyl)pyrimidin-2-yl)amino)phenyl)acetamide]	7.17	8.36	8.37	
COc1cccc2c(-c3nc(Nc4ccc(N(C)CCN(C)C)c(NC(C)=O)c4)ncc3C(F)(F)F)c[nH]c12 [Compound 374, N-(2-((2-(dimethylamino)ethyl)(methyl)amino)-5-((4-(7-methoxy-1H-indol-3-yl)-5-(trifluoromethyl)pyrimidin-2-yl)amino)phenyl)acetamide]	7.28	8.28	8.43	
COc1cccc2c(-c3nc(Nc4ccc(N(C)CCN(C)C)c(N)c4)ncc3C(F)(F)F)c[nH]c12 [Compound 375, N^1-(2-(dimethylamino)ethyl)-N^4-(4-(7-methoxy-1H-indol-3-yl)-5-(trifluoromethyl)pyrimidin-2-yl)-N^1-methylbenzene-1,2,4-triamine]	6.82	8.38	8.39	
COc1cccc2c(-c3nc(Nc4ccc(OCCN(C)C)c(NC(C)=O)c4)ncc3C(F)(F)F)c[nH]c12 [Compound 381, N-(2-(2-(dimethylamino)ethoxy)-5-((4-(7-methoxy-1H-indol-3-yl)-5-(trifluoromethyl)pyrimidin-2-yl)amino)phenyl)acetamide]	6.78	8.28	8.14	
CC(=O)Nc1cc(Nc2ncc(Cl)c(-c3cn(C)c4ccccc34)n2)ccc1N1CCC(N(C)C)C1 (stereo not drawn) [Compound 402, N-(5-((5-chloro-4-(1-methyl-1H-indol-3-yl)pyrimidin-2-yl)amino)-2-(3-(dimethylamino)pyrrolidin-1-yl)phenyl)acetamide]	5.92	7.19	7.56	
Cc1cccc2c(-c3nc(Nc4ccc(N(C)CCN(C)C)c(N)c4)ncc3Cl)c[nH]c12 [Compound 422, N^4-(5-chloro-4-(7-methyl-1H-indol-3-yl)pyrimidin-2-yl)-N^1-(2-(dimethylamino)ethyl)-N^1-methylbenzene-1,2,4-triamine]	6.54	8.28	8.28	
CC(=O)Nc1cc(Nc2ncc(Cl)c(-c3c[nH]c4ccccc34)n2)ccc1N1CCC(N(C)C)C1 (stereo not drawn) [Compound 444, N-(5-((5-chloro-4-(1H-indol-3-yl)pyrimidin-2-yl)amino)-2-(3-(dimethylamino)pyrrolidin-1-yl)phenyl)acetamide]	6.52	8.54	8.26	
CC(=O)Nc1cc(Nc2ncc(Cl)c(-c3c[nH]c4ccccc34)n2)ccc1N(C)C(=O)CCN(C)C [Compound 446, N-(2-acetamido-4-((5-chloro-4-(1H-indol-3-yl)pyrimidin-2-yl)amino)phenyl)-3-(dimethylamino)-N-methylpropanamide]	6.18	7.97	8.31	

The next lines start with results.

pIC50 (H1975 cells)	pIC50 (MV-4-11 (AML) cells)	Compound	pIC50 (KM12-luc cells; KM12-Luc, 72 h)	pIC50 (KM12-luc cells)
6.69	8.27	CC(=O)Nc1cc(Nc2ncc(C(F)(F)F)c(-c3c[nH]c4c(F)cccc34)n2)ccc1N1CC[C@@H](N(C)C)C1 [Compound R-344, (R)—N-(2-(3-(dimethylamino)pyrrolidin-1-yl)-5-((4-(7-fluoro-1H-indol-3-yl)-5-(tri-fluoromethyl)pyrimidin-2-yl)amino)phenyl)acetamide]	8.13	
7.05	8.28	CC(=O)Nc1cc(Nc2ncc(C(F)(F)F)c(-c3c[nH]c4c(C)cccc34)n2)ccc1N1CC[C@@H](N(C)C)C1 [Compound R-366, (R)—N-(2-(3-(dimethylamino)pyrrolidin-1-yl)-5-((4-(7-methyl-1H-indol-3-yl)-5-(trifluoromethyl)pyrimidin-2-yl)amino)phenyl)acetamide]	8.28	
6.89	8.20	COc1cccc2c(-c3nc(Nc4ccc(N5CC[C@@H](N(C)C)C5)c(NC(C)=O)c4)ncc3C(F)(F)F)c[nH]c12 [Compound R-382, (R)—N-(2-(3-(dimethylamino)pyrrolidin-1-yl)-5-((4-(7-methoxy-1H-indol-3-yl)-5-(trifluoromethyl)pyrimidin-2-yl)amino)phenyl)acetamide]	8.04	
6.89	8.33	COc1cccc2c(-c3nc(Nc4ccc(N5CC[C@@H](N(C)C)C5)c(N)c4)ncc3C(F)(F)F)c[nH]c12 [Compound R-383, (R)-4-(3-(dimethylamino)pyrrolidin-1-yl)-N^1-(4-(7-methoxy-1H-indol-3-yl)-5-(trifluoromethyl)pyrimidin-2-yl)benzene-1,3-diamine]	8.07	
6.82	8.52	CC(=O)Nc1cc(Nc2ncc(Cl)c(-c3c[nH]c4c(C)cccc34)n2)ccc1N1CC[C@@H](N(C)C)C1 [Compound R-426, (R)—N-(5-((5-chloro-4-(7-methyl-1H-indol-3-yl)pyrimidin-2-yl)amino)-2-(3-(dimethylamino)pyrrolidin-1-yl)phenyl)acetamide]	8.68	
6.70	8.25	CC(=O)Nc1cc(Nc2ncc(C(F)(F)F)c(-c3c[nH]c4c(F)cccc34)n2)ccc1N1CC[C@H](N(C)C)C1 [Compound S-344, (S)—N-(2-(3-(dimethylamino)pyrrolidin-1-yl)-5-((4-(7-fluoro-1H-indol-3-yl)-5-(tri-fluoromethyl)pyrimidin-2-yl)amino)phenyl)acetamide]	8.20	
7.01	8.52	CC(=O)Nc1cc(Nc2ncc(C(F)(F)F)c(-c3c[nH]c4c(C)cccc34)n2)ccc1N1CC[C@H](N(C)C)C1 [Compound S-366, (S)—N-(2-(3-(dimethylamino)pyrrolidin-1-yl)-5-((4-(7-methyl-1H-indol-3-yl)-5-(trifluoromethyl)pyrimidin-2-yl)amino)phenyl)acetamide]	8.51	
6.87	8.43	COc1cccc2c(-c3nc(Nc4ccc(N5CC[C@H](N(C)C)C5)c(NC(C)=O)c4)ncc3C(F)(F)F)c[nH]c12 [Compound S-382a, (S)—N-(2-(3-(dimethylamino)pyrrolidin-1-yl)-5-((4-(7-methoxy-1H-indol-3-yl)-5-(trifluoromethyl)pyrimidin-2-yl)amino)phenyl)acetamide]	8.28	
6.93	8.34	COc1cccc2c(-c3nc(Nc4ccc(N5CC[C@H](N(C)C)C5)c(N)c4)ncc3C(F)(F)F)c[nH]c12 [Compound S-383, (S)-4-(3-(dimethylamino)pyrrolidin-1-yl)-N^1-(4-(7-methoxy-1-1H-indol-3-yl)-5-(trifluoromethyl)pyrimidin-2-yl)benzene-1,3-diamine]	8.02	
6.78	8.49	Cc1cccc2c(-c3nc(Nc4ccc(N5CC[C@H](N(C)C)C5)c(N)c4)ncc3Cl)cn(C)c12 [Compound S-425, (S)—N^1-(5-chloro-4-(1,7-dimethyl-1H-indol-3-yl)pyrimidin-2-yl)-4-(3-(dimethylamino)pyrrolidin-1-yl)benzene-1,3-diamine]		8.46
6.72	8.38	CC(=O)Nc1cc(Nc2ncc(Cl)c(-c3cn(C)c4c(C)cccc34)n2)ccc1N1CC[C@H](N(C)C)C1 [Compound S-426, (S)—N-(5-((5-chloro-4-(1,7-dimethyl-1H-indol-3-yl)pyrimidin-2-yl)amino)-2-(3-(dimethylamino)pyrrolidin-1-yl)phenyl)acetamide]		8.57
